The NIST ThermoML archive (doi:10.1016/j.fluid.2005.06.010)

Experiment: xn = mol fraction of the nth substance listed
Conditions: Fluid (supercritical or subcritical phases), Vibrating tube method

c1ccc2ccccc2c1 [naphthalene] + O=C=O
Conditions | mass density [kg/m3]
328.08 K, 11734 kPa, x1 = 0.0065 | 526.75
328.08 K, 11815 kPa, x1 = 0.0065 | 533.03
328.08 K, 11937 kPa, x1 = 0.0065 | 541.87
328.08 K, 12028 kPa, x1 = 0.0065 | 548.44
328.08 K, 12127 kPa, x1 = 0.0065 | 555.07
328.08 K, 12334 kPa, x1 = 0.0065 | 568.49
328.08 K, 12646 kPa, x1 = 0.0065 | 586.46
328.08 K, 13208 kPa, x1 = 0.0065 | 613.74
328.08 K, 13824 kPa, x1 = 0.0065 | 638.32
328.08 K, 14520 kPa, x1 = 0.0065 | 661.29
328.08 K, 15410 kPa, x1 = 0.0065 | 685.64
328.08 K, 16319 kPa, x1 = 0.0065 | 706.24
328.08 K, 17226 kPa, x1 = 0.0065 | 723.77
328.08 K, 18128 kPa, x1 = 0.0065 | 739.05
328.08 K, 19046 kPa, x1 = 0.0065 | 752.91
328.08 K, 20020 kPa, x1 = 0.0065 | 766.16
328.08 K, 21002 kPa, x1 = 0.0065 | 778.22
328.08 K, 21995 kPa, x1 = 0.0065 | 789.31
328.08 K, 22871 kPa, x1 = 0.0065 | 798.48
328.08 K, 23424 kPa, x1 = 0.0065 | 803.93
328.1 K, 10952 kPa, x1 = 0.0038 | 442.37
328.1 K, 11010 kPa, x1 = 0.0038 | 448.13
328.1 K, 11054 kPa, x1 = 0.0038 | 452.8
328.1 K, 11219 kPa, x1 = 0.0038 | 468.8
328.1 K, 11363 kPa, x1 = 0.0038 | 482.43
328.1 K, 11517 kPa, x1 = 0.0038 | 495.77
328.1 K, 11649 kPa, x1 = 0.0038 | 507.25
328.1 K, 11832 kPa, x1 = 0.0038 | 521.74
328.1 K, 11972 kPa, x1 = 0.0038 | 532.31
328.1 K, 12088 kPa, x1 = 0.0038 | 540.71
328.1 K, 12322 kPa, x1 = 0.0038 | 556.51
328.1 K, 12538 kPa, x1 = 0.0038 | 569.79
328.1 K, 12706 kPa, x1 = 0.0038 | 579.47
328.1 K, 12941 kPa, x1 = 0.0038 | 591.84
328.1 K, 13117 kPa, x1 = 0.0038 | 600.49
328.1 K, 13376 kPa, x1 = 0.0038 | 612.23
328.1 K, 13618 kPa, x1 = 0.0038 | 622.37
328.1 K, 13925 kPa, x1 = 0.0038 | 634.21
328.1 K, 14240 kPa, x1 = 0.0038 | 645.33
328.1 K, 14511 kPa, x1 = 0.0038 | 654.12
328.1 K, 14850 kPa, x1 = 0.0038 | 664.35
328.1 K, 15299 kPa, x1 = 0.0038 | 676.78
328.1 K, 15816 kPa, x1 = 0.0038 | 689.62
328.1 K, 16314 kPa, x1 = 0.0038 | 700.83
328.1 K, 16845 kPa, x1 = 0.0038 | 711.78
328.1 K, 17403 kPa, x1 = 0.0038 | 722.35
328.1 K, 18014 kPa, x1 = 0.0038 | 732.96
328.1 K, 18738 kPa, x1 = 0.0038 | 744.46
328.1 K, 19499 kPa, x1 = 0.0038 | 755.49
328.1 K, 20377 kPa, x1 = 0.0038 | 767.2
328.1 K, 21134 kPa, x1 = 0.0038 | 776.5
328.1 K, 22132 kPa, x1 = 0.0038 | 787.85
328.1 K, 23017 kPa, x1 = 0.0038 | 797.14
328.1 K, 24029 kPa, x1 = 0.0038 | 806.95
328.1 K, 25024 kPa, x1 = 0.0038 | 815.98
328.11 K, 15028 kPa, x1 = 0.0214 | 725.95
328.11 K, 15923 kPa, x1 = 0.0214 | 742.34
328.11 K, 17035 kPa, x1 = 0.0214 | 759.59
328.11 K, 18008 kPa, x1 = 0.0214 | 773.1
328.11 K, 19015 kPa, x1 = 0.0214 | 785.68
328.11 K, 20044 kPa, x1 = 0.0214 | 797.24
328.11 K, 21022 kPa, x1 = 0.0214 | 807.22
328.11 K, 22000 kPa, x1 = 0.0214 | 816.43
328.11 K, 23011 kPa, x1 = 0.0214 | 825.23
328.11 K, 24023 kPa, x1 = 0.0214 | 833.49
332.93 K, 18103 kPa, x1 = 0.0198 | 740.17
332.93 K, 19004 kPa, x1 = 0.0198 | 753.43
332.93 K, 20061 kPa, x1 = 0.0198 | 767.37
332.93 K, 21067 kPa, x1 = 0.0198 | 779.34
332.93 K, 22050 kPa, x1 = 0.0198 | 789.99
332.93 K, 23026 kPa, x1 = 0.0198 | 799.71
332.93 K, 23949 kPa, x1 = 0.0198 | 808.29
332.93 K, 24971 kPa, x1 = 0.0198 | 817.26
332.95 K, 12055 kPa, x1 = 0.0049 | 468.83
332.95 K, 13050 kPa, x1 = 0.0049 | 535.86
332.95 K, 14011 kPa, x1 = 0.0049 | 584.76
332.95 K, 14979 kPa, x1 = 0.0049 | 622.27
332.95 K, 16026 kPa, x1 = 0.0049 | 654.27
332.95 K, 17024 kPa, x1 = 0.0049 | 679.08
332.95 K, 18017 kPa, x1 = 0.0049 | 699.78
332.95 K, 18994 kPa, x1 = 0.0049 | 717.43
332.95 K, 20008 kPa, x1 = 0.0049 | 733.55
332.95 K, 21018 kPa, x1 = 0.0049 | 747.87
332.95 K, 22004 kPa, x1 = 0.0049 | 760.51
